From US20110206612A1, “NOVEL SCREENS TO IDENTIFY AGENTS THAT MODULATE RETINAL BLOOD VESSEL FUNCTION AND PERICYTE FUNCTION AND DIAGNOSTIC AND THERAPEUTIC APPLICATION THEREFOR” (UNIVERSITY OF TECHNOLOGY, SYDNEY, priority 2002, published 2011) come the findings set out here.

Assay [1] concerns pericytes stimulated by PACAP. Briefly: inhibition of PACAP-induced relaxation of pericytes on silicone substrate. In kind it is cell-based. The method, then: The contractile state of the pericyte was quantified by counting the number of wrinkles (N) and the length of each wrinkle (l) in the thin shin sheet of silicone. From these observations an index of contractility (Ci) was developed from […]. An experiment to determine the effect of vasoactive agents was conducted by first quantifying Ci with the pericyte in physiological buffer (“control”). The Ci was quantified after exposing the pericytes to a vasoactive agent and allowing the pericyte to reach a steady-state level of contractility, which usually took 10 minutes. The effect of the vasoactive agent was determined by dividing by the Ci in the control condition and multiplying by 100 to obtain an index of effect (Ie,%) that was either less than 100 (pericyte relaxed relative to control) or greater than 100 (pericyte contracted relative to control). As a further control, incubations with buffer alone for the complete duration of exposure to each vasoactive agent were performed in conjunction with each experiment.
The present inventors further identified protein kinase A (PKA) as being affected by the increase in cAMP following the binding of PACAP or VIP. For this purpose cells were grown on silicone substrate and contacted by a 10^−8 M concentration of PACAP.
The present inventors have also shown that the relaxing effect of PACAP on pericyte contraction was in part mediated by the intracellular pathway that mobilises Ca^2+ from intracellular stores.

The subject of assay [2] is retinal pericytes. The assay can be described thus: cells. The note with it: for effect on contractile state of retinal pericytes (in words): pericytes on silicone substrate, 10 minutes per concentration. The method, then: A small volume of dimethylpolysiloxane (Sigma Chemical Co.) of either 60,000 cps (DMPS-60M) or 12,500 cps (DMPS-12M) viscosity was applied to 12 mm diameter glass cover slips. In some cases an intermediate viscosity dimethylpolysiloxane (30,000 cps) was prepared by blending 54% by weight of 60,000 cps dimethylpolysiloxane with 46% by weight of 12,500 cps dimethylpolysiloxane. The coated cover-slip was heated for 2 seconds using a Bunsen burner to induce cross-linking of the surface of the dimethylpolysiloxane and formation of a thin silicone rubber sheet bonded to the cover slip. After preparation, the cover slips were placed in 24-well tissue culture dishes and sterilised by UV irradiation overnight.
Pericytes from primary cultures (first passage) were plated on the cover slips in DMEM supplemented with 10% FCS.
The response of the cells to the antagonists was evaluated using phase contrast microscopy at room temperature. […] Cells were identified as relaxed when the tension wrinkles associated with them diminished in size, and completely relaxed when the wrinkles disappeared. Conversely, a pericyte contracted when there was an increase in the number and length of the wrinkles associated with the pericyte. During each experiment, an image of the pericytes was captured (videocamera and framegrabber) by the computer every minute. The wrinkles were analysed after the experiment from these captured images.
In each of the experiments, the length of each clearly discerned wrinkle associated with the cell was measured 3 times, and the average of the lengths was tabulated. The two ends of a wrinkle were determined by the contrast difference from the background on the picture. The contrast settings on the computer, videocamera or framegrabber were set at the commencement of an experiment and then not changed during the course of an experiment. Similarly, the focus of the microscope was set at the commencement of the experiment and then not changed during the course of an experiment. The depth (level) of solution in the bath was also kept constant, by aspirating and injecting each new solution at the same rate. Thus the only change in the image of the wrinkle (contrast, length) was due to the tension induced in the silicone substrate by the pericyte. The wrinkles during each experimental condition were counted from the photographs with help of a Zeiss videoplan.
The contractile state of the pericyte was quantified by counting the number of wrinkles (N) and the length of each wrinkle (l) in the thin shin sheet of silicone. From these observations an index of contractility (Ci) was developed from […]. An experiment to determine the effect of vasoactive agents was conducted by first quantifying Ci with the pericyte in physiological buffer (“control”). […] As a further control, incubations with buffer alone for the complete duration of exposure to each vasoactive agent were performed in conjunction with each experiment.
For this purpose cells were grown on silicone rubber. On the day of experiment the cells were rinsed with HEPES-buffered solution for 20 min at room temperature. Then the pericytes were exposed to norepinephrine (N5785, Sigma, USA) at different concentrations (10^−6M, 10^−5M, 10^−4 M) by a rapid exchange of the entire solution. The pericytes were exposed to each new drug concentration for a total of 10 minutes, with an image of the pericytes taken every 1 min.

pEC50: −log10 of the molar value. Where two headings read alike, the source gives them in different places.

For the molecule `Nc1ncnc2c1ncn2[C@@H]1O[C@@H]2COP(O)(=S)O[C@H]2[C@H]1O` (single isomer, unassigned) [Rp-cAMPS, adenosine 3′,5′-cyclic monophosphothioate, Rp-isomer], the pEC50 in assay [1] (10^−8 M PACAP, 10, 30, 100 μM added sequentially, 10 minutes each, FIG. 6, read-out: EC50 of inhibition of the relaxing effect of PACAP) is 4.59.
For `O=S(=O)(NCCNCC=Cc1ccc(Br)cc1)c1cccc2cnccc12` [H-89, N-(2-[p-bromocinnamylamino]-ethyl)-5-isoquinolinesulfonamid-e], the “effect on the relaxing effect of PACAP” value in assay [1] (10^−8 M PACAP, inhibitor at 0.3 μM) was “inhibited the relaxing effect”.
Turning to `O=C(O)c1ccccc1Nc1ccccc1` [N-phenylanthranilic acid], the “effect on contractile state of retinal pericytes (in words)” value (shortened to “effect on contractile state”) in assay [2] was “can influence the contractile state of retinal pericytes”.
On to `NC[C@H](O)c1ccc(O)c(O)c1` [NE, norepinephrine], for which the “effect on contractile state” value in assay [2] is recorded as “contracting in a dose-dependent manner”. Also, the pEC50 in assay [2] (read-out: EC50 of pericyte contraction of silicone substrate) was 5.10. In assay [2] (retinal pericytes, FIG. 3), the “concentration causing contraction of pericytes” value was “greater than 10^−6 M” and the “concentration giving maximum enhancement of contractile state of the pericytes” value is on record as 10^−4 M.
As to `C[C@@H](C(=O)O)c1ccc(-c2ccccc2)c(F)c1` [R-flurbiprofen, flurbiprofen], the “effect on contractile state” value in assay [2] is on record as “can influence the contractile state of retinal pericytes”.
With `COc1ccc2c(c1)CC[C@@H]1[C@@H]2CC[C@]2(C)[C@@H](NCCCCCCN3C(=O)C=CC3=O)CC[C@@H]12` [U73122, 1-[6-([(17β)-3-Methoxyestra-1,3,5(10)-trien-17-yl]amino)hexyl]-1H-py-rrole-2,2-dione], the “effect on PACAP-induced relaxation of pericytes” value in assay [1] (inhibitor at 10 μM) was “antagonist of the PACAP-induced relaxation of pericytes”.
Take `CC[C@H](C)[C@H](NC(=O)[C@H](CO)NC(=O)[C@H](CC(N)=O)NC(=O)[C@H](CC(C)C)NC(=O)[C@H](Cc1ccc(O)cc1)NC(=O)[C@H](CCCCN)NC(=O)[C@H](CCCCN)NC(=O)[C@@H](NC(=O)[C@H](C)NC(=O)[C@H](CCSC)NC(=O)[C@H](CCC(N)=O)NC(=O)[C@H](CCCCN)NC(=O)[C@H](CCCNC(=N)N)NC(=O)[C@H](CC(C)C)NC(=O)[C@H](CCCNC(=N)N)NC(=O)[C@@H](NC(=O)[C@H](Cc1ccc(O)cc1)NC(=O)[C@H](CC(N)=O)NC(=O)[C@H](CC(=O)O)NC(=O)[C@@H](NC(=O)[C@H](Cc1ccccc1)NC(=O)[C@@H](NC(=O)[C@H](C)NC(=O)[C@H](CC(=O)O)NC(=O)[C@H](CO)NC(=O)[C@@H](N)Cc1c[nH]cn1)C(C)C)[C@@H](C)O)[C@@H](C)O)C(C)C)C(=O)N[C@@H](CC(C)C)C(=O)N[C@@H](CC(N)=O)C(N)=O` [VIP, vasoactive intestinal polypeptide]: the pEC50 in assay [2] (read-out: EC50 concentration, effect on contractility of pericytes (relaxation), contractility index below 100 = relaxed, data averaged from cells, FIGS. 4, 5) was 7.32.
For the molecule `O=C(O)c1ccccc1Nc1cccc(C(F)(F)F)c1` [flufenamic acid], the “effect on contractile state” value in assay [2] was “can influence the contractile state of retinal pericytes”.
